Tested on: RSV A2
Experiment: RSV lung titer in cotton rats after local (intranasal) administration
Assay type: in vivo, cotton rat (Sigmoden hispidis)
Conditions: for RSV titer (log10/g lung) Mean / RSV titer (log10/g lung) in CR No. 1 / RSV titer (log10/g lung) in CR No. 2 / RSV titer (log10/g lung) in CR No. 3 / RSV titer (log10/g lung) in CR No. 4: non-ISS = SEQ ID NO:9
Experimental: Cotton rats, 50-100 g and 4-12 weeks old (Sigmoden hispidis) of either sex were used in these studies. All of the animals were descendants of two pair of cotton rats obtained in 1984 from the Small Animal Section of the Veterinary Research Branch, Division of Research Services, National Institutes of Health.
RSV strain A2 was purchased from the ATCC (ATCC VR26). Working stocks of this virus were prepared as described in detail by Wyde et al. (1995) Pediatr. Res. 38:543-550. ISS sequence tested for RSV experiments was 5′-[…]-3′ (SEQ ID NO:1) (phosphorothioate). Control, non-ISS sequences used were 5′-[…]-3′ (SEQ ID NO:9) (phosphorothioate) and 5′-[…]-3′ (SEQ ID NO:10) (phosphorothioate), as well as PBS.
RSV levels in virus pools and lung lavage fluids (L.F.) were determined using sterile 96-well, flat bottom tissue culture plates (Falcon 3072), serial 3-fold dilutions and 2% FCS-MEM as described in detail previously (Wyde et al., 1995). […] The amount of virus in virus pools was expressed as a median tissue culture infectious doses (TCID50/ml, log10). Titers of virus in L.F. were expressed as TCID50/g lung tissue (log10). The minimum detectable virus concentration in these assays was 1.3 log10 TCID50/ml (virus pools) or 1.6 log10 TCID50/g lung.
On day −3 (i.e., 3 days before infection with virus), 20 cotton rats (CRs) were selected and divided into five groups of four animals. The animals in Group 1 were lightly anesthetized and 50 μL of phosphate buffered saline (PBS) was administered intranasally (IN). The CRs in Group 2 were similarly administered 150 μg of ISS (5′-[…]-3′) (SEQ ID NO:1), while the animals in Group 3 were similarly administered 150 μg of control non-ISS sequence 5′-[…]-3′ (SEQ ID NO:9). Three days later, on Day 0, each of CRs in Group 4 were anesthetized and 150 μg of ISS was administered IN, and the animals in Group 5 were administered, in a like manner, 150 μg of control non-ISS sequence 5′-[…]-3′ (SEQ ID NO:9).
Thirty minutes later, all of the CRs were inoculated IN with 100 median tissue culture infectious doses (TCID50) of RSV A2. Four days later (Day 4), all of the animals were sacrificed and the lungs of each animal were removed, lavaged, and assessed for RSV levels.

[1] = 150 μg IN Day 0 (30 min before RSV), lungs Day 4
[2] = 150 μg IN Day −3, RSV Day 0, lungs Day 4

Substance: 5′-TGACTGTGAACGTTCGAGATGA-3′ [SEQ ID NO: 1]
- RSV titer (log10/g lung) Mean [1]: 3.9 log10/g lung
- RSV titer (log10/g lung) in CR No. 1 [1]: 4 log10/g lung
- RSV titer (log10/g lung) in CR No. 2 [1]: 4 log10/g lung
- RSV titer (log10/g lung) in CR No. 3 [1]: 4.5 log10/g lung
- RSV titer (log10/g lung) in CR No. 4 [1]: 3 log10/g lung
- RSV titer (log10/g lung) Mean [2]: 2.8 log10/g lung
- RSV titer (log10/g lung) in CR No. 1 [2]: 3 log10/g lung
- RSV titer (log10/g lung) in CR No. 2 [2]: 3 log10/g lung
- RSV titer (log10/g lung) in CR No. 3 [2]: 2.5 log10/g lung
- RSV titer (log10/g lung) in CR No. 4 [2]: 2.5 log10/g lung
- Effect on RSV viral titer in infected tissue (IN administration 3 days before infection): effective at reducing viral titers
- Effect on RSV viral titer in infected tissue (first IN administration on the day of infection): not effective
